The inhibition is the share of the control response that was lost under treatment.

SMILES strings stand for the structures. Some results are limits rather than exact numbers.

The record followed here is patent US20230091225A1, “Bifunctional chimeric heterocyclic compounds for targeted degradation of androgen receptors and use thereof” (HINOVA PHARMACEUTICALS INC., priority 2019, published 2023).

For this experiment, the target named is T1, androgen receptor (AR) (Homo sapiens, UniProt P10275).
T1 sequence (P10275 1-920): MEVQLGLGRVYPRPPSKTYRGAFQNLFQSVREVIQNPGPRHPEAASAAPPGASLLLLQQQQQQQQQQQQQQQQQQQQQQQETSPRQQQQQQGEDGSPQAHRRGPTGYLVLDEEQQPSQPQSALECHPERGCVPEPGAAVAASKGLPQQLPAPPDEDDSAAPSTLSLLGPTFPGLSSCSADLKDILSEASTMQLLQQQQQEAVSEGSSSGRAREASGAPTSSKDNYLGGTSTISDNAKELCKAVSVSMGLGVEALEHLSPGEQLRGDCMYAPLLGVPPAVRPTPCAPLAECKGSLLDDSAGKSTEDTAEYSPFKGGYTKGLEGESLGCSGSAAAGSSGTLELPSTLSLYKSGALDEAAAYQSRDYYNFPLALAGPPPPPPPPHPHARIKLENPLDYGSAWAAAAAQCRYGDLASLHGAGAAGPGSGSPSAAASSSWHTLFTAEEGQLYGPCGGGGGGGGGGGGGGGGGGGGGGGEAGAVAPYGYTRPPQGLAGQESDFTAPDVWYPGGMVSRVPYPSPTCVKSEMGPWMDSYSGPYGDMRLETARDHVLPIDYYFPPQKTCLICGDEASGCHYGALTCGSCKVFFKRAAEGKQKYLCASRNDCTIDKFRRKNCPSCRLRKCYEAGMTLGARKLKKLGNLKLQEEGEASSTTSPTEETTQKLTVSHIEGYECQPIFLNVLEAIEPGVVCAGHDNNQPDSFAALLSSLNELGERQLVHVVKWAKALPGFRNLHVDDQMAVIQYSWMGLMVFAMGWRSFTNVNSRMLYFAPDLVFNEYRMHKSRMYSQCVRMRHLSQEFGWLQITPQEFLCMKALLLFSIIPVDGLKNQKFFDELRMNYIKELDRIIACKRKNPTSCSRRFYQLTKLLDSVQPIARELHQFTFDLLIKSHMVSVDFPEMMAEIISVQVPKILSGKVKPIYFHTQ
Briefly: Degradation of androgen receptor (AR) protein in VCaP cells by Western blot. The format is cell-based. The note with it: percentage of degraded AR at 100 nM, VCaP cells, 16 h. In outline:
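AR and β-actin levels were read by Western blot with ECL detection, loading 30 μg lysate protein per well. Before lysis, VCaP cells seeded at 5×10^5/well and grown overnight were exposed to compound for 16 h, two wells per concentration, keeping DMSO at 0.1%.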
For orientation: Immunoblotting shows a protein as a band on a membrane.
Regarding `N#Cc1ccc(OC2CCC(NC(=O)c3cnc(N4C[C@@H]5CN(C6CCN(c7cc8c(cc7F)C(=O)N(C7CCC(=O)NC7=O)C8=O)CC6)C[C@@H]5C4)nc3)CC2)cc1Cl` (stereo partly drawn) [Compound 220, N-((1s,4S)-4-(3-chloro-4-cyanophenoxy)cyclohexyl)-2-((3aR,6aS)-5-(1-(2-(2,6-dioxopiperidin-3-yl)-6-fluoro-1,3-dioxoisoindolin-5-yl)piperidine-4-yl)hexahydropyrrolo[3,4-c]pyrrol-2(1H)-yl)pyrimidine-5-carboxamide], the “% degradation” value is “D (<25%)”. `CC1(C)[C@H](NC(=O)c2ccc(N3CCC(N4C[C@H]5CN(c6cc7c(cc6F)C(=O)N(C6CCC(=O)NC6=O)C7=O)C[C@H]5C4)CC3)nn2)C(C)(C)[C@H]1Oc1ccc(C#N)c(Cl)c1` (stereo partly drawn) [Compound 221, N-((1r,3R)-3-(3-chloro-4-cyanophenoxy)-2,2,4,4-tetramethylcyclobutyl)-6-(4-((3aR,6aS)-5-(2-(2,6-dioxopiperidin-3-yl)-6-fluoro-1,3-dioxoisoindolin-5-yl)hexahydropyrrolo[3,4-c]pyrrol-2(1H)-yl)piperidin-1-yl)pyridazine-3-carboxamide] registered an inhibition at 0.1 µM of 25 to 49%. The same measure, in the same setting: for `N#Cc1ccc(O[C@H]2CC[C@H](NC(=O)c3ccc(N4C[C@H]5C[C@@H](CN6CC7CN(c8cc9c(cc8F)C(=O)N(C8CCC(=O)NC8=O)C9=O)CC7C6)C[C@H]5C4)nn3)CC2)cc1Cl` (stereo partly drawn) [Compound 222, N-((1r,4r)-4-(3-chloro-4-cyanophenoxy)cyclohexyl)-6-((3aR,5R, 6aS)-5-((5-(2-(2,6-dioxopiperidin-3-yl)-6-fluoro-1,3-dioxoisoindolin-5-yl)hexahydropyrrolo[3,4-c]pyrrol-2(1H)-yl)methyl)hexahydrocyclopenta[c]pyrrole-2(1H)-yl)pyridazine-3-formamide] the value was > 80%; for `N#Cc1ccc(O[C@H]2CC[C@H](NC(=O)c3ccc(N4CC(N5CC6CN(c7cc8c(cc7F)C(=O)N(C7CCC(=O)NC7=O)C8=O)CC6C5)C4)nn3)CC2)cc1Cl` (some centres unmarked) [Compound 223, N-((1r,4r)-4-(3-chloro-4-cyanophenoxy)cyclohexyl)-6-(3-(5-(2-(2,6-dioxopiperidin-3-yl)-6-fluoro-1,3-dioxoisoindolin-5-yl)hexahydropyrrolo[3,4-c]pyrrol-2(1H)-yl)azitidin-1-yl)pyridazine-3-carboxamide], > 80%. The compound `N#Cc1ccc(O[C@H]2CC[C@H](NC(=O)c3ccc(N4C[C@H]5C[C@@H](CN6CCN(c7cc8c(cc7F)C(=O)N(C7CCC(=O)NC7=O)C8=O)CC6)C[C@H]5C4)nn3)CC2)cc1Cl` (stereo partly drawn) [Compound 224, N-((1r,4r)-4-(3-chloro-4-cyanophenoxy)cyclohexyl)-6-((3aR,5R,6aS)-5-((4-(2-(2,6-dioxopiperidin-3-yl)-6-fluoro-1,3-dioxoisoindolin-5-yl)piperazin-1-yl)methyl)hexahydrocyclopenta[c]pyrrole-2(1H)-yl)pyridazine-3-formamide] returned an inhibition at 0.1 µM of 50 to 79%. On the same count and under the same terms, the figure for `N#Cc1ccc(O[C@H]2CC[C@H](NC(=O)c3cnc(N4CC(N5CC6CN(c7cc8c(cc7F)C(=O)N(C7CCC(=O)NC7=O)C8=O)CC6C5)C4)cn3)CC2)cc1Cl` (some centres unmarked) [Compound 225, N-((1r,4r)-4-(3-chloro-4-cyanophenoxy)cyclohexyl)-5-(3-(5-(2-(2,6-dioxopiperidin-3-yl)-6-fluoro-1,3-dioxoisoindolin-5-yl)hexahydropyrrolo[3,4-c]pyrrol-2(1H)-yl)azitidin-1-yl)pyrazine-2-carboxamide] is 50 to 79%; for `N#Cc1ccc(O[C@H]2CC[C@H](NC(=O)c3ccc(N4CCN(CC5C[C@@H]6CN(c7cc8c(cc7F)C(=O)N(C7CCC(=O)NC7=O)C8=O)C[C@@H]6C5)CC4)nn3)CC2)cc1Cl` (some centres unmarked) [Compound 226] it is 50 to 79%.

`N#Cc1ccc(Oc2ccc(NC(=O)c3ccc(N4CCC(CN5CCN(c6cc7c(cc6F)C(=O)N(C6CCC(=O)NC6=O)C7=O)CC5)CC4)nn3)cc2)cc1Cl` (centres unmarked) [Compound 227, N-(4-(3-chloro-4-cyanophenoxy)phenyl)-6-(4-((4-(2-(2,6-dioxopiperidin-3-yl)-6-fluoro-1,3-dioxoisoindolin-5-yl)piperazin-1-yl)methyl)piperidin-1-yl)pyridazine-3-formamide]: the inhibition at 0.1 µM was 25 to 49%. Same read-out and setting: for `N#Cc1ccc(O[C@H]2CC[C@H](NC(=O)c3cnc(N4CCC(N5CC6(CCN(c7cc8c(cc7F)C(=O)N(C7CCC(=O)NC7=O)C8=O)CC6)C5)CC4)cn3)CC2)cc1Cl` (some centres unmarked) [Compound 228, N-((1r,4r)-4-(3-chloro-4-cyanophenoxy)cyclohexyl)-5-(4-(7-(2-(2,6-dioxopiperidin-3-yl)-6-fluoro-1,3-dioxoisoindolin-5-yl)-2,7-diazaspiro[3.5]nonan-2-yl)piperidin-1-yl)pyrazine-2-carboxamide] the value was > 80%; for `N#Cc1ccc(O[C@H]2CC[C@H](NC(=O)c3cnc(N4CCC(N5CC6(CCN(c7ccc8c(c7)C(=O)N(C7CCC(=O)NC7=O)C8=O)CC6)C5)CC4)cn3)CC2)cc1Cl` (some centres unmarked) [Compound 229, N-((1r,4r)-4-(3-chloro-4-cyanophenoxy)cyclohexyl)-5-(4-(7-(2-(2,6-dioxopiperidin-3-yl)-1,3-dioxoisoindolin-5-yl)-2,7-diazaspiro[3.5]nonan-2-yl)piperidin-1-yl)pyrazine-2-carboxamide], > 80%.

As to `N#Cc1ccc(OC2CCC(NC(=O)c3ccc(N4CCC(CN5CCC6(CC5)CN(c5ccc7c(c5)C(=O)N(C5CCC(=O)NC5=O)C7=O)C6)CC4)nn3)CC2)cc1Cl` (centres unmarked) [Compound 230, N-((1r,4r)-4-(3-chloro-4-cyanophenoxy)cyclohexyl)-6-(4-((2-(2-(2,6-dioxopiperidin-3-yl)-1,3-dioxoisoindolin-5-yl)-2,7-diazaspiro[3.5]nonan-7-yl)methyl)piperidin-1-yl)pyridazine-3-carboxamide], the “% degradation” value is reported as “A (>80%)”. `N#Cc1ccc(O[C@H]2CC[C@H](NC(=O)c3ccc(N4CCC(CN5CCC6(CC5)CN(c5cc7c(cc5F)C(=O)N(C5CCC(=O)NC5=O)C7=O)C6)CC4)nn3)CC2)cc1Cl` (some centres unmarked) [Compound 231, N-((1r,4r)-4-(3-chloro-4-cyanophenoxy)cyclohexyl)-6-(4-((2-(2-(2-,2,6-dioxopiperidin-3-yl)-6-fluoro-1,3-dioxoisoindolin-5-yl)-2,7-diazaspiro[3.5]nonan-7-yl)methyl)piperidin-1-yl)pyridazine-3-carboxamide]: the inhibition at 0.1 µM is > 80%. For `N#Cc1ccc(O[C@H]2CC[C@H](NC(=O)c3ccc(N4CC5(CCN(CC6CCN(c7cc8c(cc7F)C(=O)N(C7CCC(=O)NC7=O)C8=O)CC6)CC5)C4)nn3)CC2)cc1Cl` (some centres unmarked) [Compound 232], the inhibition at 0.1 µM is > 80%.

For the compound `N#Cc1ccc(O[C@H]2CC[C@H](NC(=O)c3ccc(N4CCC(CN5CC6CN(c7ccc8c(c7)C(=O)N(C7CCC(=O)NC7=O)C8=O)CC6C5)CC4)nn3)CC2)cc1Cl` (some centres unmarked) [Compound 252, N-((1r,4r)-4-(3-chloro-4-cyanophenoxy)cyclohexyl)-6-(4-((5-(2-(2,6-dioxopiperidin-3-yl)-1,3-dioxoisoindolin-5-yl)Hexahydropyrrolo[3,4-c]pyrrol-2(11H)-yl)methyl)piperidin-1-yl)pyridazine-3-formamide], the inhibition at 0.1 µM was in the range of 25 to 49%.

`N#Cc1ccc(O[C@H]2CC[C@H](NC(=O)c3ccc(N4CCC(CN5CC6CN(c7cc8c(cc7F)C(=O)N(C7CCC(=O)NC7=O)C8=O)CC6C5)CC4)nn3)CC2)cc1Cl` (some centres unmarked) [Compound 253, N-((1r,4r)-4-(3-chloro-4-cyanophenoxy)cyclohexyl)-6-(4-((5-(2-(2,6-dioxopiperidin-3-yl)-6-fluoro-1,3-dioxoisoindolin-5-yl)Hexahydropyrrolo[3,4-c]pyrrol-2(1H)-yl)methyl)piperidin-1-yl)pyridazine-3-formamide] registered an inhibition at 0.1 µM of 50 to 79%. On the same count and under the same terms, the figure for `N#Cc1ccc(O[C@H]2CC[C@H](NC(=O)c3cnc(N4CCC(CN5CC6CN(c7ccc8c(c7)C(=O)N(C7CCC(=O)NC7=O)C8=O)CC6C5)CC4)cn3)CC2)cc1Cl` (some centres unmarked) [Compound 254, N-((1r,4r)-4-(3-chloro-4-cyanophenoxy)cyclohexyl)-5-(4-((5-(2-(2,6-dioxopiperidin-3-yl)-1,3-dioxoisoindolin-5-yl)Hexahydropyrrolo[3,4-c]pyrrol-2(11H)-yl)methyl)piperidin-1-yl)pyrazine-2-carboxamide] is 50 to 79%. The same measure, in the same setting: the figure for `N#Cc1ccc(O[C@H]2CC[C@H](NC(=O)c3cnc(N4CCC(CN5CC6CN(c7cc8c(cc7F)C(=O)N(C7CCC(=O)NC7=O)C8=O)CC6C5)CC4)cn3)CC2)cc1Cl` (some centres unmarked) [Compound 255, N-((1r,4r)-4-(3-chloro-4-cyanophenoxy)cyclohexyl)-5-(4-((5-(2-(2,6-dioxopiperidin-3-yl)-6-fluoro-1,3-dioxoisoindolin-5-yl)Hexahydropyrrolo[3,4-c]pyrrol-2(1H)-yl)methyl)piperidin-1-yl)pyrazine-2-carboxamide] is 50 to 79%.
